Measured values published in the supplement of paper PMC4862054.

What was measured:
HCC1599 [1] = assay: normalised viability (% of control), CellTiter-Blue; higher = more viable cells (about 100 = DMSO control); conditions: incubation time: 72 h
In short: (§1)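 After 72 h on compound-loaded 384-well plates, breast cancer cell lines received 2.5 µl CellTiter-Blue reagent for 2 h at 37 °C. Fluorescence at 560/590 nm was scaled per plate so that vehicle was 100 and a positive kill control was 0. The value stands for normalised viability at a single listed concentration of the series.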

CAL-120 = assay: as above; conditions: incubation time: 72 h
In short: as §1

SK-BR-3 [2] = assay: as above; conditions: incubation time: 72 h
In short: as §1

MDA-MB-468 [3] = conditions: 72 h
In short: (§2)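 Breast cancer cell lines in 20 µl suspension were seeded onto 384-well plates that already held compound dissolved in 5 µl medium and were incubated for 72 h. Viability was measured by adding 2.5 µl CellTiter-Blue for 2 h at 37 °C and reading fluorescence at 560/590 nm. Each plate was normalised to vehicle and a positive kill control and checked by Z'-factor. EC50 was taken from a fitted percent-inhibition dose-response curve, censored at the highest concentration, and rows with a drug sensitivity score of zero were removed.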

MDA-MB-231 [4] = conditions: 72 h
In short: as §2

BT-474 [5] = conditions: 72 h
In short: as §2

MFM-223 = conditions: 72 h
In short: as §2

DU-4475 [6] = conditions: 72 h
In short: as §2

CAL-85-1 [7] = conditions: 72 h
In short: as §2

HDQ-P1 [8] = conditions: 72 h
In short: as §2

MDA-MB-453 [9] = conditions: 72 h
In short: as §2

BT-549 = conditions: 72 h
In short: (§3)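 The plates used were 384-well plates holding compound at 5 concentrations in 10-fold steps across a compound-specific 10,000-fold range, into which breast cancer cell lines were seeded in 20 µl suspension. Following 72 h incubation, CellTox Green fluorescence was read at 485/520 nm, and CellTiter-Glo luminescence was read after 10 min at room temperature. Normalisation on each plate used 0.1 % DMSO and a positive kill control. Dose-response curves gave the EC50, which was censored at the top concentration.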

CAL-148 [10] = conditions: 72 h
In short: as §3

MCF-10A = conditions: 72 h
In short: as §3

CAL-85-1 [11] = conditions: 72 h; remark: listed apart in the source
In short: as §3

HDQ-P1 [12] = conditions: 72 h; remark: listed apart in the source
In short: as §3

SK-BR-3 [13] = conditions: 72 h
In short: as §3

MDA-MB-453 [14] = conditions: 72 h; remark: listed apart in the source
In short: as §3

CAL-85-1 [15] = conditions: 72 h; remark: listed apart in the source
Procedure: (§4)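 Drug sensitivity and resistance testing (DSRT) of breast cancer cell lines in 384-well plates, 5 concentrations in 10-fold dilutions over a compound-specific 10,000-fold range. After 72 h, cytotoxicity was read by CellTox Green fluorescence and viability by CellTiter-Glo luminescence (multiplexed), normalised to DMSO and benzethonium chloride controls. EC50 is the inflection point of the fitted dose-response curve (bottom asymptote free, so it can be relative for partial curves) and is censored at the highest tested concentration. Rows with DSS 0 (no meaningful response) were excluded.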

Hs578T [16] = conditions: 72 h
In short: as §2

MDA-MB-468 [17] = conditions: 72 h; remark: listed apart in the source
Procedure: as §4

MDA-MB-231 [18] = conditions: 72 h; remark: listed apart in the source
Procedure: as §4

HCC1143 [19] = conditions: 72 h
In short: as §2

HCC1143 [20] = conditions: 72 h; remark: listed apart in the source
In short: as §3

Hs578T [21] = conditions: 72 h; remark: listed apart in the source
In short: as §3

DU-4475 [22] = conditions: 72 h; remark: listed apart in the source
In short: as §3

BT-474 [23] = conditions: 72 h; remark: listed apart in the source
In short: as §3

MDA-MB-436 = conditions: 72 h
In short: as §3

CAL-51 [24] = conditions: 72 h
In short: as §3

CAL-148 [25] = conditions: 72 h; remark: listed apart in the source
Procedure: as §4

CAL-51 [26] = conditions: 72 h; remark: listed apart in the source
Procedure: as §4

HCC1599 [27] = conditions: 72 h
In short: as §2

CN1CCC(COc2cnc(-c3cccc(Cn4nc(-c5cccc(C#N)c5)ccc4=O)c3)nc2)CC1
normalised viability (HCC1599 [1]; 10 nM): 108% | normalised viability (HCC1599 [1]; 1000 nM): 120% | normalised viability (HCC1599 [1]; 10000 nM): 71.9% | normalised viability (CAL-120; 10 nM): 97.3% | normalised viability (CAL-120; 1000 nM): 116% | normalised viability (CAL-120; 10000 nM): 11.8% | normalised viability (SK-BR-3 [2]; 10 nM): 93.1% | normalised viability (SK-BR-3 [2]; 1000 nM): 89.2% | normalised viability (SK-BR-3 [2]; 10000 nM): 2.76% | EC50, CellTiter-Blue viability (MDA-MB-468 [3]): 3040 nM | EC50, CellTiter-Blue viability (MDA-MB-231 [4]): 2060 nM | EC50, CellTiter-Blue viability (BT-474 [5]): 4450 nM | EC50, CellTiter-Blue viability (MFM-223): 6.27 µM | EC50, CellTiter-Blue viability (DU-4475 [6]): 5890 nM | EC50, CellTiter-Blue viability (CAL-85-1 [7]): 5150 nM | EC50, CellTiter-Blue viability (HDQ-P1 [8]): 4970 nM | EC50, CellTiter-Blue viability (MDA-MB-453 [9]): 3640 nM

CN(C)C/C=C/C(=O)Nc1cc2c(Nc3ccc(F)c(Cl)c3)ncnc2cc1O[C@H]1CCOC1 [Afatinib]
EC50, CellTiter-Glo (BT-549): > 1000 nM | EC50, CellTiter-Glo (CAL-148 [10]): 24.1 nM | EC50, CellTiter-Glo (MCF-10A): 6.58 nM | EC50, CellTiter-Glo (CAL-85-1 [11]): 35.2 nM | EC50, CellTiter-Glo (HDQ-P1 [12]): 9.48 nM | EC50, CellTiter-Glo (SK-BR-3 [13]): 10.7 nM | EC50, CellTiter-Glo (MDA-MB-453 [14]): 54.7 nM | EC50, CellTox Green (CAL-85-1 [15]): 19.7 nM | normalised viability (HCC1599 [1]; 10 nM): 97.4% | normalised viability (HCC1599 [1]; 1000 nM): 77.6% | normalised viability (HCC1599 [1]; 10000 nM): 79.5% | normalised viability (CAL-120; 10 nM): 71.8% | normalised viability (CAL-120; 1000 nM): 66.1% | normalised viability (CAL-120; 10000 nM): 13.2% | normalised viability (SK-BR-3 [2]; 10 nM): 52.1% | normalised viability (SK-BR-3 [2]; 1000 nM): 19.3% | normalised viability (SK-BR-3 [2]; 10000 nM): 12.3% | EC50, CellTiter-Blue viability (MDA-MB-468 [3]): 1160 nM | EC50, CellTiter-Blue viability (Hs578T [16]): 4260 nM | EC50, CellTiter-Blue viability (MDA-MB-231 [4]): 2010 nM | EC50, CellTiter-Blue viability (BT-474 [5]): 20.9 nM | EC50, CellTiter-Blue viability (MFM-223): 3.74 µM | EC50, CellTiter-Blue viability (CAL-85-1 [7]): 147 nM | EC50, CellTiter-Blue viability (HDQ-P1 [8]): 398 nM | EC50, CellTiter-Blue viability (MDA-MB-453 [9]): 45.7 nM

Nc1nc(Cl)nc2c1ncn2[C@H]1C[C@H](O)[C@@H](CO)O1 [Cladribine]
EC50, CellTiter-Glo (BT-549): 125 nM | EC50, CellTox Green (MDA-MB-468 [17]): 2.5 nM | EC50, CellTox Green (MDA-MB-231 [18]): > 1000 nM | normalised viability (HCC1599 [1]; 1 nM): 97.8% | normalised viability (HCC1599 [1]; 100 nM): 83% | normalised viability (HCC1599 [1]; 1000 nM): 91.7% | normalised viability (CAL-120; 1 nM): 87.2% | normalised viability (CAL-120; 100 nM): 79.7% | normalised viability (CAL-120; 1000 nM): 48.1% | normalised viability (SK-BR-3 [2]; 1 nM): 92.6% | normalised viability (SK-BR-3 [2]; 100 nM): 99.7% | normalised viability (SK-BR-3 [2]; 1000 nM): 42.4% | EC50, CellTiter-Blue viability (HCC1143 [19]): > 1000 nM | EC50, CellTiter-Blue viability (MDA-MB-231 [4]): 9.12 nM | EC50, CellTiter-Blue viability (DU-4475 [6]): 879 nM

Nc1ccn([C@@H]2O[C@H](CO)[C@@H](O)[C@@H]2O)c(=O)n1 [Cytarabine]
EC50, CellTiter-Glo (BT-549): 305 nM | EC50, CellTiter-Glo (CAL-148 [10]): 200 nM | EC50, CellTiter-Glo (HCC1143 [20]): 1270 nM | EC50, CellTiter-Glo (Hs578T [21]): 462 nM | EC50, CellTiter-Glo (DU-4475 [22]): 339 nM | EC50, CellTiter-Glo (HDQ-P1 [12]): 2890 nM | EC50, CellTiter-Glo (SK-BR-3 [13]): 156 nM | EC50, CellTiter-Glo (BT-474 [23]): > 10 µM | EC50, CellTiter-Glo (MDA-MB-436): 364 nM | EC50, CellTiter-Glo (CAL-51 [24]): 544 nM | EC50, CellTox Green (CAL-148 [25]): 61.6 nM | EC50, CellTox Green (CAL-51 [26]): 315 nM | normalised viability (HCC1599 [1]; 10 nM): 109% | normalised viability (HCC1599 [1]; 1000 nM): 78.7% | normalised viability (HCC1599 [1]; 10000 nM): 77.4% | normalised viability (CAL-120; 10 nM): 95.6% | normalised viability (CAL-120; 1000 nM): 66.4% | normalised viability (CAL-120; 10000 nM): 56.9% | normalised viability (SK-BR-3 [2]; 10 nM): 97.3% | normalised viability (SK-BR-3 [2]; 1000 nM): 64.7% | normalised viability (SK-BR-3 [2]; 10000 nM): 47.2% | EC50, CellTiter-Blue viability (HCC1599 [27]): 556 nM | EC50, CellTiter-Blue viability (MDA-MB-468 [3]): 483 nM | EC50, CellTiter-Blue viability (HCC1143 [19]): 213 nM | EC50, CellTiter-Blue viability (Hs578T [16]): 17.3 nM | EC50, CellTiter-Blue viability (MDA-MB-231 [4]): 183 nM | EC50, CellTiter-Blue viability (DU-4475 [6]): 450 nM | EC50, CellTiter-Blue viability (CAL-85-1 [7]): 1190 nM | EC50, CellTiter-Blue viability (MDA-MB-453 [9]): 396 nM
